Our source for the melting point values is patent US7049271B2, “Phenyl-substituted 2-enamino-ketonitriles” (Bayer Aktiengesellschaft, priority 2000, dated 2006).

In general, melting point refers to the temperature of the solid-liquid transition. In turn, `CN/C(=C(/C#N)C(=O)c1ccc(Cl)cc1)c1ccc(Cl)cc1` [Example 3, 2-(4-chlorobenzoyl)-3-(4-chlorophenyl)-3-(N-methylamino)-propenonitrile] yielded a melting point of 182 °C.
The value for `C/C(NC1CC1)=C(\C#N)C(=S)c1ccc(Cl)cc1` [Example 8, 2-[(4-chlorophenyl)-thiocarbonyl]-3-(N-cyclopropylamino)-crotononitrile] was 215 °C.
